{"source": "paper PMC11561622", "about": "“Evaluating Antimalarial Proteasome Inhibitors for Efficacy in Babesia Blood Stage Cultures” (ACS Omega, 2024)", "key": {"[1]": {"system": "B. divergens proteasome β5 subunit", "format": "biochemical, Babesia divergens", "experimental": "(§1) B. divergens and B. microti protein lysates were prepared from infected red blood cells. Briefly, red blood cells were lysed with 0.15% saponin prepared in 1× Phosphate-Buffered Saline (PBS), pH 7.5, to release intact parasites. Parasites were washed with 1× PBS, pH 7.5 (PBS), by centrifugation and the pellets were stored at −80 °C in PBS plus 20% glycerol. To prepare protein lysates for enzymatic assays, parasites were thawed and transferred to 50 mM HEPES (pH 7.5), 10 μM E64, 100 μM AESBF, 1 μM Pepstatin A, and 1 mM DTT (all Sigma-Aldrich). Cells were ruptured by ultrasonication with an amplitude of 0.5 for 3 cycles of 15 s on ice. To prepare protein lysates for activity-based probing and proteasome purification, parasites were thawed and transferred to 20 mM Tris-HCl, pH 7.5, 1 mM DTT, 10 μM E64, and 5% glycerol. The lysate was sonicated on ice for 3 times and clarified by centrifugation at 17,000g for 10 min at 4 °C.\nTo further improve the detection of the β5 subunit activity with the Suc-LLVY-amc substrate of the Babesia proteasome as previously published,[27] we aimed to further optimize assay conditions. However, to reduce the number of experimental animals in the study, assay conditions were optimized using protein lysates of B. divergens, which can be grown in vitro, instead of B. microti lysates, which need to be maintained in mice. […] Assay conditions were optimized in 50 μL volumes in round-bottom 96-well plates. Two assay buffers were evaluated. Buffer A, as described previously,[27] consists of 20 mM HEPES, pH 8, 1 mM ATP, and 1 μM E64, while Buffer B consists of 50 mM HEPES, pH 7.5, 5 mM ATP, 10 μM E64, 100 μM AESBF, 1 μM Pepstatin A, and 1 mM DTT. Buffers A and B were tested with either 0.02% SDS or 6.67 ng of PA28 as activators of the proteasome activity. […] The release of the AMC fluorophore was monitored at 37 °C in a Synergy HTX multimode reader (BioTek) with excitation and emission wavelengths set to 340 and 460 nm, respectively.\nProteasome activity in B. microti and B. divergens lysates was screened in the presence of carmaphycin B (CPB) and numerous analogs that were previously designed to target the P. falciparum 20S proteasome.[30] A pool of lysates was made for each species to ensure that equal amounts of the lysates were used in each inhibition reaction. Inhibitors were transferred to black 384-well plates with the ATS acoustic transfer system (ATS-100, Biosera). Lysates were incubated with inhibitors for 30 min at room temperature and activity was assayed in 30 μL reactions. Each reaction mixture contained 5 μL of Babesia lysate, 10 nL of the inhibitor (final concentration of 133.33 nM), and 25 μL of assay buffer with 25 μM substrate succinyl-Leu-Leu-Val-Tyr-7-amido-4-methylcoumarin (Suc-LLVY-amc). The release of the AMC fluorophore was monitored at 37 °C in a Synergy HTX multimode reader (BioTek Instruments, Winooski, VT) with excitation and emission wavelengths set to 340 and 460 nm, respectively. Activity was quantified as RFU per second and normalized to the DMSO control reactions."}, "[2]": {"system": "B. microti proteasome β5 subunit", "experiment": "β5 proteasome activity in B. microti lysates (Suc-LLVY-amc)", "format": "biochemical, Babesia microti", "settings": "133.33 nM inhibitor, relative to DMSO", "experimental": "as §1\nTo further improve the detection of the β5 subunit activity with the Suc-LLVY-amc substrate of the Babesia proteasome as previously published,[27] we aimed to further optimize assay conditions. However, to reduce the number of experimental animals in the study, assay conditions were optimized using protein lysates of B. divergens, which can be grown in vitro, instead of B. microti lysates, which need to be maintained in mice. […] Two assay buffers were evaluated. […] The release of the AMC fluorophore was monitored at 37 °C in a Synergy HTX multimode reader (BioTek) with excitation and emission wavelengths set to 340 and 460 nm, respectively.\nProteasome activity in B. microti and B. divergens lysates was screened in the presence of carmaphycin B (CPB) and numerous analogs that were previously designed to target the P. falciparum 20S proteasome.[30] […] The release of the AMC fluorophore was monitored at 37 °C in a Synergy HTX multimode reader (BioTek Instruments, Winooski, VT) with excitation and emission wavelengths set to 340 and 460 nm, respectively. Activity was quantified as RFU per second and normalized to the DMSO control reactions."}, "[3]": {"system": "HepG2 cells", "settings": "previously reported; cited from earlier work"}}, "note": "“Also recorded” adds a separate entry of the source.", "data": [{"smiles": "CCCCCC(=O)N[C@H](C(=O)N[C@@H](CCS(C)(=O)=O)C(=O)N[C@@H](CC(C)C)C(=O)[C@@]1(C)CO1)C(C)C", "note": "[carmaphycin B]", "values": [{"measurement": "inhibition of β5 activity in B. divergens lysate (in words)", "setting": "[1]", "value": "to the same extent as CFZ; also recorded: completely inactivate"}, {"measurement": "inhibition of β5 activity in B. microti lysate (in words)", "setting": "[2]", "value": "to the same extent as CFZ"}, {"measurement": "inhibition of β5 activity in B. microti lysate (in words)", "setting": "[2]; listed as CPB", "value": "inhibited"}, {"measurement": "EC50", "setting": "[3]", "value": "12.6 ± 1.4", "unit": "nM"}]}]}
